Data: publication PMC7930822, “Phase I Trial to Evaluate the Tolerance, Pharmacokinetics and Efficacy of the Broad-Spectrum ErbB Family Inhibitor Larotinib Mesylate in Patients With Advanced Solid Tumors” (Frontiers in Pharmacology, 2021)
pIC50: −log10 of the molar value. Where a name gives a salt, the structure may show the parent alone. Read-outs that look alike come from different tables or passages of the source.

How the values were obtained:
[1] = system: wild-type EGFR; assay: in vitro kinase inhibition, wild-type EGFR; format: biochemical
Protocol: Larotinib mesylate (Figure 1) is a novel, potent broad-spectrum TKI with EGFR as the main target with a 50% inhibitory concentration (IC50) of 0.6 nM (data not published). […] We hypothesized that the characteristics of larotinib mesylate that facilitate simultaneous inhibition of multiple kinases may improve the tumor inhibiting effect of the drug and decrease the emergence of resistance to larotinib mesylate in solid tumor cells.

[2] = system: tumor-bearing mice; assay: preclinical pharmacodynamic study in tumor-bearing mice; format: in vivo; details: from effective dose of 18 mg/kg in tumor-bearing mice, by body surface area
Protocol: Animal toxicology studies of larotinib mesylate were conducted in both Sprague–Dawley rats and beagle dogs. […] The maximal tolerable doses (MTDs) were 20 and 25 mg/kg in Sprague–Dawley rats and beagle dogs, respectively.
According to the guidance for clinical trials of antitumor agents published by the Center for Drug Evaluation and Research in China, for cytotoxic antitumor agents, the initial dose in a phase I study can be calculated as 1/10 of the MTD in rodents or 1/6 of the MTD in non-rodent animals ([CFDA, 2012]). For non-cytotoxic antitumor agents, because of their relatively lower toxicity, the initial dose can be set higher. According to the reported preclinical results for larotinib mesylate, the MTD in Sprague–Dawley rats translated to a human equivalent dose of 192 mg/d according to body surface area (calculated by 60 kg body weight), for which 1/10 is 19.2 mg/d ([FDA, 2005]). […] Taking the above results for the toxicology, preclinical pharmacology and pharmacodynamics, and drug specifications (10, 50 and 100 mg) of larotinib mesylate into account, we calculated a recommended starting dose of 50 mg larotinib mesylate for a phase I, first-in-human clinical study, lower than human equivalent 1/6 MTD translated from beagle dogs and near the human equivalent effective dose translated from tumor-bearing mice. […]

[3] = system: wild-type EGFR; set-up: method as in data not published; details: ref data not published, cited from earlier work
[4] = system: EGFR with the L861Q mutation; set-up: method as in data not published; details: ref data not published; cited from earlier work
[5] = system: EGFR with a deletion in the exon 19; set-up: method as in data not published; details: ref data not published; cited from earlier work
[6] = biological target: B-lymphoid tyrosine kinase (BLK); set-up: method as in data not published; details: ref data not published; cited from earlier work
[7] = system: Sprague–Dawley rats; set-up: method as in data not published; details: ref data not published, cited from earlier work

## COc1cc2ncnc(Nc3ccc(F)c(Cl)c3)c2cc1OCCCN1C[C@@H]2OCCO[C@@H]2C1 [larotinib mesylate]
[1]; ref Baselga and Averbuch, 2000
  fold greater inhibitory activity than gefitinib: 37 fold
[1]; ref Moyer et al., 1997
  fold greater inhibitory activity than erlotinib: 3 fold
[2]
  human equivalent effective dose: 86.4 mg/day
[3]; EGFR as the main target
  pIC50: 9.22
[3]; wild-type EGFR
  pIC50: 9.21
[4]
  pIC50: 9.37
[5]
  inhibition: potently inhibited
[6]
  pIC50: 6.99
[7]; daily administration
  no observed adverse effect level (NOAEL): 10 mg/kg
[7]
  maximal tolerable dose (MTD): 20 mg/kg
